One data set is described as follows: Solubility of peptides. Type of data set: physicochemical. The conditions noted are these: for solubility: insoluble at higher concentrations, read-out: solubility limit.
Data set [1] concerns G361 cells. In words: Inhibition by soluble peptides of G361 cell attachment to immobilized rCBD of TS1. The conditions noted are these: for inhibition of G361 cell attachment to rCBD (in words): soluble peptide inhibitor, immobilized rCBD. The format is cell-based, human. As to the method: FIGS. 3A and 3B show the effect of the active subpeptides of C4 and C7 on G361 cell attachment to the rCBD of TS1. To microtiter wells containing immobilized rCBD (10 μg/ml), G361 cells were added with (FIG. 3A) 4N1-1 (●), 7N3-1 (▪), 4N1-1 plus 7N3-1 (▴) and with (FIG. 3B) 4N1 (▪), 7N3 (●) and 4N1 plus 7N3 (▴). The cells were incubated for 1.5 hr in the wells and cell attachment was determined. The effects of these subpeptides on cell attachment are expressed as percent relative to the maximum cell attachment for each test where 100% is the number of cells binding to rCBD-coated well in the absence of peptide inhibitors.
After blocking, cells were allowed to attach for 1 hr at 37° C. to substrate-coated wells or beads. In some tests, inhibition was determined by adding peptide inhibitors of cell attachment to each well along with the cells. After removal of non-adhering cells, cells attached to immobilized substrates were quantitated with endogenous cellular phosphatase activity which is measured by absorption at 410 nm as previously described (Prater et al., 1991). Each assay was carried out in duplicate and each peptide was tested in 3 separate tests at 3 or more different concentrations.
To be sure that the active peptides from C4 and C7 contain the sequences that are relevant for attachment of cells to the CBD, the shorter, more soluble active peptides were tested as soluble inhibitors of the binding of G361 cells to rCBD immobilized on plastic wells. […] In contrast, 4N1-1 and 4N1, the active subpeptides for C4, are insoluble at concentrations higher than 0.2 mM and thus must be tested as soluble inhibitors at concentrations below this solubility limit. It should be noted that inclusion of peptides in the cell attachment assay at these concentrations had no adverse effects on the cells. The results of this complementary bioassay confirmed those of the direct cell adhesion assays (FIGS. 1 and 2). […] The inhibition was dose-dependent at peptide concentrations <0.1 mM for 4N1 and 7N3 and <0.2 mM for 4N1-1 and 7N3-1. […] Each peptide is present at ½ the indicated concentration. In the case of 4N1 plus 7N3, the inhibition was nearly complete (87%). […] To evaluate the contribution of adjacent sequences to activity, peptide 7N2-2 which contained the N-terminal sequence of 7N3-1, and 7N3-1 were examined in inhibition studies.

For data set [2], the system named is K562 human erythroleukemia cells. Kind of data set: Attachment of K562 cells to immobilized TS1, LM or rCBD. The format is cell-based. The conditions noted are these: protein-coated wells. As to the method:
(§1) FIGS. 6A, 6B, 6C and 6D show the attachment of four cell types to immobilized TS-1 and LM. Wells were coated with the indicated concentrations of TS1 (▪) or LM (●). Assays were performed as described under “Methods” hereinafter with (FIG. 6A)—G361 human melanomas; (FIG. 6B)—K562 erythroleukemia cells; (FIG. 6C)—HT1080 fibrosarcomas; and (FIG. 6D)—C32 amelanotic melanomas added to the wells.
(§2) Cell Adhesion Assay—Cell adhesion was performed in 96-well plates by conventional procedures as previously described (Prater et al., 1991; Kosfeld and Frazier, 1992). Synthetic peptides were solubilized with 6 N guanidine HCl (GnHCl) because some hydrophobic peptides were insoluble at concentrations approaching 1 mM in TBS. […] The efficiency of coupling of all peptides was greater than 90% as judged by UV absorbance. […]
(§3) After blocking, cells were allowed to attach for 1 hr at 37° C. to substrate-coated wells or beads. In some tests, inhibition was determined by adding peptide inhibitors of cell attachment to each well along with the cells. After removal of non-adhering cells, cells attached to immobilized substrates were quantitated with endogenous cellular phosphatase activity which is measured by absorption at 410 nm as previously described (Prater et al., 1991). […]

In data set [3] the test system is G361 cells. Kind of data set: Direct attachment of G361 cells to peptides adsorbed on microtiter wells (cell adhesion assay). The format is cell-based, human. The conditions noted are these: peptide adsorbed to plastic wells; cells 1 hr at 37° C.; in words. How it is done: Equimolar concentrations of peptides shown in FIG. 1A were evaluated as attachment factors for G361 cells. Peptides C4 (¤), 4N (●), 4N1 (▴), 4N1-1 (♦), 4N2 (▪) and 4C ([formula]) were adsorbed to microtiter plates at the indicated concentrations. Cells were added to the wells and incubated for 1 hour at 37° C. The attached cells were quantitated as described under “Materials and Methods” hereinbelow, and the actual absorbance due to endogenous cellular phosphatase hydrolysis of p-Nitrophenyl phosphate at 410 nm is plotted.
Microtiter wells were adsorbed with peptides C7 (▪), 7N (●), 7N3 (▴), 7N3-1 (♦), 7N2 (▪), 7N2-2 (∘), 7N3-2 (▴) and 7C, 7N1 or 7N2-1 ([formula]) at various concentrations and the attachment of G361 cells was determined. The numbers of cells attached to these peptides were correlated with the cellular phosphatase activity which is expressed as absorbance at 410 nm.
Cell Adhesion Assay—Cell adhesion was performed in 96-well plates by conventional procedures as previously described (Prater et al., 1991; Kosfeld and Frazier, 1992). […] The efficiency of coupling of all peptides was greater than 90% as judged by UV absorbance. […]
After blocking, cells were allowed to attach for 1 hr at 37° C. to substrate-coated wells or beads. In some tests, inhibition was determined by adding peptide inhibitors of cell attachment to each well along with the cells. […]

For another data set, the system named is G361 human melanomas. In words: Attachment of G361 cells to immobilized TS1 or LM. The conditions noted are these: protein-coated wells. The format is cell-based. How it is done: as §1, §2, §3
Data set [4] deals with HT1080 human fibrosarcomas. In words: Attachment of HT1080 cells to immobilized TS1 or LM. Type of data set: cell-based. The conditions noted are these: protein-coated wells. As to the method: as §1, §2, §3
The next data set relates to C32 human melanoma. In words: Attachment of C32 cells to immobilized TS1 or LM. The format is cell-based. The conditions noted are these: protein-coated wells. How it is done:
as §1, §2, §3

Data set [5] has as its target thrombospondin 1 (TS1) receptor.
Data set [6] has the same target. The source holds these as a separate data set.
For data set [7] the target is unchanged. The source holds these as a separate data set.

For orientation: solubility means the dissolved amount per volume that the medium holds.

Entries after “also recorded” stand apart in the source; their conditions may differ. Where a SMILES comes first, the peptide text is derived from it. Where no end group is shown, it is not given here.

`CC[C@H](C)[C@H](N)C(=O)N[C@@H](CCCNC(=N)N)C(=O)N[C@H](C(=O)N[C@H](C(=O)N[C@@H](CCSC)C(=O)O)C(C)C)C(C)C` [7N3-1, Ile-Arg-Val-Val-Met] (H-IRVVM-OH; N-terminus and C-terminus assumed): in “Solubility of peptides”, the “solubility (in words)” value was “highly soluble”.
As for Gly-Arg-Val-Val-Met (GRVVM), in the data set with G361 cells [1], the “inhibition of G361 cell attachment to rCBD (in words)” value (“inhibition … (in words)” below) was “inactive”.
Turning to `CSCC[C@H](NC(=O)[C@@H](NC(=O)[C@@H](NC(=O)[C@H](Cc1ccc(O)cc1)NC(=O)[C@H](Cc1ccccc1)NC(=O)[C@@H](N)CCCNC(=N)N)C(C)C)C(C)C)C(=O)N[C@@H](Cc1c[nH]c2ccccc12)C(=O)N[C@@H](CCCCN)C(=O)O` [4N1-1, Arg-Phe-Tyr-Val-Val-Met-Trp-Lys], in “Solubility of peptides”, the solubility is at most 200 µM.
Regarding `CSCC[C@H](NC(=O)[C@@H](NC(=O)[C@@H](NC(=O)[C@H](Cc1ccc(O)cc1)NC(=O)[C@H](Cc1ccccc1)NC(=O)[C@@H](N)CCCNC(=N)N)C(C)C)C(C)C)C(=O)N[C@@H](Cc1c[nH]c2ccccc12)C(=O)N[C@@H](CCCCN)C(=O)N[C@@H](CCC(N)=O)C(=O)N[C@H](C(=O)N[C@H](C(=O)N[C@@H](CCC(N)=O)C(=O)N[C@@H](CO)C(=O)O)[C@@H](C)O)C(C)C` [4N1, Arg-Phe-Tyr-Val-Val-Met-Trp-Lys-Gln-Val-Thr-Gln-Ser] (H-RFYVVMWKQVTQS-OH; N-terminus and C-terminus assumed), the solubility in the data set “Solubility of peptides” is at most 200 µM.
For the molecule “rCBD: recombinant COOH-terminal cell binding domain of TS1 expressed in bacteria as protein A-CBD fusion protein”, the “attachment of K562 cells to immobilized protein” value in data set [2] is “bound well”.
For the molecule FIRVVMYEGKK [7N3], the “cell attachment activity (direct attachment of G361 cells to immobilized peptide)” value in the data set with G361 cells [3] is given as “significant activity”. The “inhibition of G361 cell attachment to rCBD-coated surfaces” value with G361 cells [1] (rCBD 10 μg/ml immobilized, soluble peptide, combinations: each peptide at ½ the indicated concentration) is around 50%.
As for RFYVVM [4N1-2], the “cell attachment activity (direct attachment of G361 cells to immobilized peptide)” value in the data set with G361 cells [3] is on record as “little or no activity”. Further, the “inhibition … (in words)” value in the data set with G361 cells [1] is “as potent as the longer 4N1-1; also recorded: active”.
Take “TS1: thrombospondin 1, extracellular matrix protein”: in the data set with G361 human melanomas, the “attachment of G361 cells to immobilized protein” value was “bound well”. Also, in data set [2], the “attachment of K562 cells to immobilized protein” value was “much more avidly than to LM”. Besides, the “attachment of HT1080 cells to immobilized protein” value in data set [4] is “bound well”. Also, the “attachment of C32 cells to immobilized protein” value in the data set with C32 human melanoma is on record as “much more avidly than to LM”.
With Ile-Glu-Val-Val-Met (IEVVM), the “inhibition … (in words)” value in the data set with G361 cells [1] was “inactive”.
Same read-out and setting: for Ile-Arg-Val-Val-Gly (IRVVG) the value was “inactive”.
RFYVVMWK [4N1-1]: in data set [5], the attachment of G361 cells to peptide adsorbed to microtiter wells (absorbance at 410 nm) (% of the maximum activity of 4N1) amounted to 60. This molecule gave an inhibition of G361 cell attachment to rCBD-coated wells in data set [6] of 30 % inhibition. The molecule further yielded an inhibition of G361 cell attachment to LM-coated wells in the data set with LM receptor of 32 % inhibition. The inhibition of K562 cell attachment to immobilised rCBD in data set [7] came to 36 % inhibition.
In turn, FIRVVMYEGKK [7N3] yielded an inhibition of G361 cell attachment to rCBD-coated wells in data set [6] of 50 % inhibition.
Still for that read-out and setting: for RFYVVMWKQVTQS [4N1] the value was 30 % inhibition.
In turn, IRVVM [7N3-1] had an inhibition of G361 cell attachment to rCBD-coated wells in data set [6] of 25 % inhibition. The molecule further had an inhibition of G361 cell attachment to LM-coated wells with LM receptor of 50 % inhibition. In data set [7], this molecule registered an inhibition of K562 cell attachment to immobilised rCBD of 28 % inhibition.

The values are drawn from patent US6469138B1, “Thrombospondin receptor binding peptides” (Washington University, priority 1993, dated 2002).
